Paper PMC11702115 (BMC Biology, 2025)

Assays:
[1] = biological target: OfurIR75/OfurIR8a (Ostrinia furnacalis, UniProt A0A0F7QIG0); experiment: two-electrode voltage clamp, Xenopus oocytes; type: cell-based; details: agonist, IR8a co-expressed, 10 uM screen, -80 mV, pH 7.6
[2] = biological target: T1, HarmOR52 (with HarmOrco) (Helicoverpa armigera, UniProt A0A7T3KAH2); experiment: two-electrode voltage clamp, Xenopus oocytes; type: cell-based; details: agonist; Orco co-expressed; 100 uM screen, dose series; -80 mV, pH 7.6
T1 sequence (A0A7T3KAH2 1-419): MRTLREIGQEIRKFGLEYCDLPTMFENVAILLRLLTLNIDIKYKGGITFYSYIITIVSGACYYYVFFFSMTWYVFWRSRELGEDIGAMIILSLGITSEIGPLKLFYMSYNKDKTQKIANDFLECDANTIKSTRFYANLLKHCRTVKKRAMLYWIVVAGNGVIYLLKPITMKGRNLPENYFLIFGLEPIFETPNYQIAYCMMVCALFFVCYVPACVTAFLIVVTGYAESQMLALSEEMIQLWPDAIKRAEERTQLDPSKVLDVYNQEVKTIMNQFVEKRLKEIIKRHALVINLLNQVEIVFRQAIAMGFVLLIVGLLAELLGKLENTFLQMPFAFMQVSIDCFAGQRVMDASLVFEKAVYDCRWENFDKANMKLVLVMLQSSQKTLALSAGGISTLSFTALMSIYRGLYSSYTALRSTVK

OfurIR75/OfurIR8a, sequence (A0A0F7QIG0 19-626): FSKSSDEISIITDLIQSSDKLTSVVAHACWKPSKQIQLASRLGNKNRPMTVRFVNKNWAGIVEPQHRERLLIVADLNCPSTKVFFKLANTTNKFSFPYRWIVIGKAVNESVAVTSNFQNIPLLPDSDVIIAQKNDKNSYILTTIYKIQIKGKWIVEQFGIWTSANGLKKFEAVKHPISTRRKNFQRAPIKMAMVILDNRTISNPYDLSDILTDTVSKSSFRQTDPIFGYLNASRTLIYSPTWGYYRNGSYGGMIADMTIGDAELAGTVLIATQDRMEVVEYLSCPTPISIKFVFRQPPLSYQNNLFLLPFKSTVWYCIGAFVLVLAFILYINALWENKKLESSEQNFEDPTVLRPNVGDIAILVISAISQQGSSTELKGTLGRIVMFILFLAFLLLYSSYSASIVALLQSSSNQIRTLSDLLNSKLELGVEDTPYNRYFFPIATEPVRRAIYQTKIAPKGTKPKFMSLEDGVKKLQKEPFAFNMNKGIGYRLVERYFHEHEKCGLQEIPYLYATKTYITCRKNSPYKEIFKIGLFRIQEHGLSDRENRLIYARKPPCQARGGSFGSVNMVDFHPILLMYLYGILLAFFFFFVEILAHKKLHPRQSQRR
OfurIR75/OfurIR8a, sequence (A0A0F7QED2 20-902 partner): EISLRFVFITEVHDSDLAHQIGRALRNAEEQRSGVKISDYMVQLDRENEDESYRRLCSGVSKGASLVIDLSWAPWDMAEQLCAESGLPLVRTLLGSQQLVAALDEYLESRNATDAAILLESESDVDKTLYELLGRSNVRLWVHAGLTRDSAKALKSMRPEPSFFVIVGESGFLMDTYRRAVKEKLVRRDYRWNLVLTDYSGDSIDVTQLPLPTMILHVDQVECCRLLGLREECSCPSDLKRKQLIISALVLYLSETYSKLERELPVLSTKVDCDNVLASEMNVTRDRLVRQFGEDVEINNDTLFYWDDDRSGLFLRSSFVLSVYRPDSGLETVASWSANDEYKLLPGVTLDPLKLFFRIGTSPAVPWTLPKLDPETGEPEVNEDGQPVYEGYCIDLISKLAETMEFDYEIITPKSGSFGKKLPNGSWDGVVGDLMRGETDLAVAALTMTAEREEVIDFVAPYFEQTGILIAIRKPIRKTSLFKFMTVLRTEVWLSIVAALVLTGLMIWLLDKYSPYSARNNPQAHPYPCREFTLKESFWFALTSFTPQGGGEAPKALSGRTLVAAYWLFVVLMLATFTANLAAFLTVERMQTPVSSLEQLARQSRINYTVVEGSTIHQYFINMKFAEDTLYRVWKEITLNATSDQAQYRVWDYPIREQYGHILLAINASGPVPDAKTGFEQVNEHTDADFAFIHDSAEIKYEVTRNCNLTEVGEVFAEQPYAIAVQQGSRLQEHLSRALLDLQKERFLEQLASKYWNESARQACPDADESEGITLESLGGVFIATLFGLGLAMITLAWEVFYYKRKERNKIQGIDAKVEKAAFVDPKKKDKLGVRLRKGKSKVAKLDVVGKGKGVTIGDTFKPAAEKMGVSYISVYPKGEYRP

Row | SMILES | two-electrode voltage clamp, Xenopus oocytes [1] | two-electrode voltage clamp, Xenopus oocytes ([1]; dose series) | two-electrode voltage clamp, Xenopus oocytes [2]
1 | CCCCCCC(=O)O [heptanoic acid] | Weaker responses were elicited by heptanoic acid and octanoic acid |  | 
2 | CCCCCC(=O)O [hexanoic acid] |  | OfurIR75/OfurIR8a responded strongly with similar magnitudes to pentanoic acid and hexanoic acid | 
3 | CC(C)CCO [isoamyl alcohol] |  |  | receptors from this clade exhibited similar response profiles, with isoamyl alcohol as the primary ligand
4 | CCCCCCCC(=O)O [octanoic acid] | Weaker responses were elicited by heptanoic acid and octanoic acid |  | 
5 | CCCCC(=O)O [pentanoic acid] |  | OfurIR75/OfurIR8a responded strongly with similar magnitudes to pentanoic acid and hexanoic acid | 
6 | CCCCCO [pentanol] |  |  | dose-dependent, with a higher sensitivity to isoamyl alcohol compared to pentanol
